# Reference: PubChem BioAssay (NCI)
#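 Where inhibition never reached the appropriate level, the endpoint shown equals the highest concentration tested. Otherwise, values were interpolated linearly from a five-concentration, 48-hour dose response in 96-well plates. TGI marks complete inhibition of growth.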
# System: OVCAR-8 ovarian
# Assay: NCI tumour cell line growth inhibition, 48 h
row,Structure (SMILES),TGI
1,Cc1nc(N)c(N2CCNCC2)c(=O)[nH]1,> 100 µM
2,CCOC(=O)NC(Nc1ccc(S(=O)(=O)Nc2ncccn2)cc1)(C(=O)OCC)C(F)(F)F (centres undefined),> 100 µM
3,O=P(O)(O)CN1CCN(CP(=O)(O)O)CCN(CP(=O)(O)O)CCN(CP(=O)(O)O)CC1,> 100 µM
4,O=C1C(Br)=CC2(C=C1Br)CCN=c1c(O)c3c(c(O)c12)=NC=N3,31.9 µM
5,Cc1cc(O)c(/C=N/C(=S)NCCc2ccccc2)c(=O)o1,> 100 µM
6,Cc1oc2nc(N(C)C)nc(Cl)c2c1C,> 100 µM
7,Cn1c(=O)c2c(nc(NCCCCl)n2CC(=O)NCCCCl)n(C)c1=O,> 100 µM
8,CC(=O)O[C@@H]1C=C(C)[C@H](CBr)O[C@@]2(C)CC[C@H](Br)C(C)(C)[C@H]12,> 100 µM
9,COc1ccc2c(c1)OCc1c-2oc2ccccc2c1=O,> 100 µM
10,Nc1nc(Cl)cc(NCC2(CO)COC2)n1,> 100 µM

# System: UACC-62 melanoma
# Assay: NCI tumour cell line growth inhibition, 48 h
row,Structure (SMILES),TGI
1,CCOC(=O)NC(Nc1ccc(S(=O)(=O)Nc2ncccn2)cc1)(C(=O)OCC)C(F)(F)F (centres undefined),> 100 µM
2,O=P(O)(O)CN1CCN(CP(=O)(O)O)CCN(CP(=O)(O)O)CCN(CP(=O)(O)O)CC1,> 100 µM
3,O=C1C(Br)=CC2(C=C1Br)CCN=c1c(O)c3c(c(O)c12)=NC=N3,24.2 µM
4,Cc1ccccc1Nc1cn(COCc2ccccc2)c(=O)[nH]c1=O,> 100 µM
5,Cc1oc2nc(N(C)C)nc(Cl)c2c1C,> 100 µM
6,Cn1c(=O)c2c(nc(NCCCCl)n2CC(=O)NCCCCl)n(C)c1=O,> 100 µM
7,Clc1cccc(Cl)c1C1SCC2=Nc3ccccc3CN21 (centres undefined),> 100 µM
8,CC(=O)O[C@@H]1C=C(C)[C@H](CBr)O[C@@]2(C)CC[C@H](Br)C(C)(C)[C@H]12,> 100 µM
9,COc1ccc2c(c1)OCc1c-2oc2ccccc2c1=O,> 100 µM
10,Nc1nc(Cl)cc(NCC2(CO)COC2)n1,> 100 µM

# System: CAKI-1 renal
# Assay: NCI tumour cell line growth inhibition, 48 h
row,Structure (SMILES),TGI
1,CCOC(=O)NC(Nc1ccc(S(=O)(=O)Nc2ncccn2)cc1)(C(=O)OCC)C(F)(F)F (centres undefined),> 100 µM
2,O=P(O)(O)CN1CCN(CP(=O)(O)O)CCN(CP(=O)(O)O)CCN(CP(=O)(O)O)CC1,> 100 µM
3,O=C1C(Br)=CC2(C=C1Br)CCN=c1c(O)c3c(c(O)c12)=NC=N3,41 µM
4,Cc1cc(O)c(/C=N/C(=S)NCCc2ccccc2)c(=O)o1,> 100 µM
5,Cc1ccccc1Nc1cn(COCc2ccccc2)c(=O)[nH]c1=O,> 100 µM
6,Cc1oc2nc(N(C)C)nc(Cl)c2c1C,> 100 µM
7,Cn1c(=O)c2c(nc(NCCCCl)n2CC(=O)NCCCCl)n(C)c1=O,> 100 µM
8,Clc1cccc(Cl)c1C1SCC2=Nc3ccccc3CN21 (centres undefined),> 100 µM
9,CC(=O)O[C@@H]1C=C(C)[C@H](CBr)O[C@@]2(C)CC[C@H](Br)C(C)(C)[C@H]12,> 100 µM
10,COc1ccc2c(c1)OCc1c-2oc2ccccc2c1=O,> 100 µM
11,Nc1nc(Cl)cc(NCC2(CO)COC2)n1,> 100 µM

# System: MALME-3M melanoma
# Assay: NCI tumour cell line growth inhibition, 48 h
row,Structure (SMILES),TGI
1,Cc1nc(N)c(N2CCNCC2)c(=O)[nH]1,> 100 µM
2,CCOC(=O)NC(Nc1ccc(S(=O)(=O)Nc2ncccn2)cc1)(C(=O)OCC)C(F)(F)F (centres undefined),> 100 µM
3,COc1ccc2c(c1)OCc1c-2oc2ccccc2c1=O,> 100 µM
4,Nc1nc(Cl)cc(NCC2(CO)COC2)n1,> 100 µM

# System: U251 CNS
# Assay: NCI tumour cell line growth inhibition, 48 h
row,Structure (SMILES),TGI
1,Cc1nc(N)c(N2CCNCC2)c(=O)[nH]1,> 100 µM
2,CCOC(=O)NC(Nc1ccc(S(=O)(=O)Nc2ncccn2)cc1)(C(=O)OCC)C(F)(F)F (centres undefined),> 100 µM
3,O=P(O)(O)CN1CCN(CP(=O)(O)O)CCN(CP(=O)(O)O)CCN(CP(=O)(O)O)CC1,> 100 µM
4,O=C1C(Br)=CC2(C=C1Br)CCN=c1c(O)c3c(c(O)c12)=NC=N3,28.4 µM
5,Cc1cc(O)c(/C=N/C(=S)NCCc2ccccc2)c(=O)o1,> 100 µM
6,Cc1ccccc1Nc1cn(COCc2ccccc2)c(=O)[nH]c1=O,> 100 µM
7,Cc1oc2nc(N(C)C)nc(Cl)c2c1C,> 100 µM
8,Cn1c(=O)c2c(nc(NCCCCl)n2CC(=O)NCCCCl)n(C)c1=O,> 100 µM
9,Clc1cccc(Cl)c1C1SCC2=Nc3ccccc3CN21 (centres undefined),> 100 µM
10,CC(=O)O[C@@H]1C=C(C)[C@H](CBr)O[C@@]2(C)CC[C@H](Br)C(C)(C)[C@H]12,> 100 µM
11,COc1ccc2c(c1)OCc1c-2oc2ccccc2c1=O,> 100 µM
12,Nc1nc(Cl)cc(NCC2(CO)COC2)n1,> 100 µM

# System: OVCAR-5 ovarian
# Assay: NCI tumour cell line growth inhibition, 48 h
row,Structure (SMILES),TGI
1,Cc1nc(N)c(N2CCNCC2)c(=O)[nH]1,> 100 µM
2,CCOC(=O)NC(Nc1ccc(S(=O)(=O)Nc2ncccn2)cc1)(C(=O)OCC)C(F)(F)F (centres undefined),> 100 µM
3,O=P(O)(O)CN1CCN(CP(=O)(O)O)CCN(CP(=O)(O)O)CCN(CP(=O)(O)O)CC1,> 100 µM
4,O=C1C(Br)=CC2(C=C1Br)CCN=c1c(O)c3c(c(O)c12)=NC=N3,29.4 µM
5,Cc1cc(O)c(/C=N/C(=S)NCCc2ccccc2)c(=O)o1,> 100 µM
6,Cc1ccccc1Nc1cn(COCc2ccccc2)c(=O)[nH]c1=O,> 100 µM
7,Cc1oc2nc(N(C)C)nc(Cl)c2c1C,> 100 µM
8,Cn1c(=O)c2c(nc(NCCCCl)n2CC(=O)NCCCCl)n(C)c1=O,> 100 µM
9,Clc1cccc(Cl)c1C1SCC2=Nc3ccccc3CN21 (centres undefined),> 100 µM
10,CC(=O)O[C@@H]1C=C(C)[C@H](CBr)O[C@@]2(C)CC[C@H](Br)C(C)(C)[C@H]12,> 100 µM
11,COc1ccc2c(c1)OCc1c-2oc2ccccc2c1=O,> 100 µM
12,Nc1nc(Cl)cc(NCC2(CO)COC2)n1,> 100 µM

# System: HCT-116 colon
# Assay: NCI tumour cell line growth inhibition, 48 h
row,Structure (SMILES),TGI
1,Cc1nc(N)c(N2CCNCC2)c(=O)[nH]1,> 100 µM
2,CCOC(=O)NC(Nc1ccc(S(=O)(=O)Nc2ncccn2)cc1)(C(=O)OCC)C(F)(F)F (centres undefined),> 100 µM
3,O=P(O)(O)CN1CCN(CP(=O)(O)O)CCN(CP(=O)(O)O)CCN(CP(=O)(O)O)CC1,> 100 µM
4,O=C1C(Br)=CC2(C=C1Br)CCN=c1c(O)c3c(c(O)c12)=NC=N3,30.3 µM
5,Cc1cc(O)c(/C=N/C(=S)NCCc2ccccc2)c(=O)o1,> 100 µM
6,Cc1ccccc1Nc1cn(COCc2ccccc2)c(=O)[nH]c1=O,> 100 µM
7,Cc1oc2nc(N(C)C)nc(Cl)c2c1C,> 100 µM
8,Cn1c(=O)c2c(nc(NCCCCl)n2CC(=O)NCCCCl)n(C)c1=O,> 100 µM
9,Clc1cccc(Cl)c1C1SCC2=Nc3ccccc3CN21 (centres undefined),25.7 µM
10,CC(=O)O[C@@H]1C=C(C)[C@H](CBr)O[C@@]2(C)CC[C@H](Br)C(C)(C)[C@H]12,> 100 µM
11,COc1ccc2c(c1)OCc1c-2oc2ccccc2c1=O,> 100 µM
12,Nc1nc(Cl)cc(NCC2(CO)COC2)n1,> 100 µM

# System: RXF 393 renal
# Assay: NCI tumour cell line growth inhibition, 48 h
row,Structure (SMILES),TGI
1,O=P(O)(O)CN1CCN(CP(=O)(O)O)CCN(CP(=O)(O)O)CCN(CP(=O)(O)O)CC1,> 100 µM
2,O=C1C(Br)=CC2(C=C1Br)CCN=c1c(O)c3c(c(O)c12)=NC=N3,29.9 µM
3,Cc1ccccc1Nc1cn(COCc2ccccc2)c(=O)[nH]c1=O,> 100 µM
4,Cc1oc2nc(N(C)C)nc(Cl)c2c1C,> 100 µM
5,Cn1c(=O)c2c(nc(NCCCCl)n2CC(=O)NCCCCl)n(C)c1=O,> 100 µM
6,Clc1cccc(Cl)c1C1SCC2=Nc3ccccc3CN21 (centres undefined),56.6 µM
7,CC(=O)O[C@@H]1C=C(C)[C@H](CBr)O[C@@]2(C)CC[C@H](Br)C(C)(C)[C@H]12,> 100 µM
8,Nc1nc(Cl)cc(NCC2(CO)COC2)n1,> 100 µM

# System: BT-549 breast
# Assay: NCI tumour cell line growth inhibition, 48 h
row,Structure (SMILES),TGI
1,Cc1nc(N)c(N2CCNCC2)c(=O)[nH]1,> 100 µM
2,CCOC(=O)NC(Nc1ccc(S(=O)(=O)Nc2ncccn2)cc1)(C(=O)OCC)C(F)(F)F (centres undefined),> 100 µM
3,O=P(O)(O)CN1CCN(CP(=O)(O)O)CCN(CP(=O)(O)O)CCN(CP(=O)(O)O)CC1,> 100 µM
4,O=C1C(Br)=CC2(C=C1Br)CCN=c1c(O)c3c(c(O)c12)=NC=N3,33.3 µM
5,Cc1cc(O)c(/C=N/C(=S)NCCc2ccccc2)c(=O)o1,> 100 µM
6,Cc1ccccc1Nc1cn(COCc2ccccc2)c(=O)[nH]c1=O,66.2 µM
7,Cc1oc2nc(N(C)C)nc(Cl)c2c1C,> 100 µM
8,Cn1c(=O)c2c(nc(NCCCCl)n2CC(=O)NCCCCl)n(C)c1=O,> 100 µM
9,Clc1cccc(Cl)c1C1SCC2=Nc3ccccc3CN21 (centres undefined),> 100 µM
10,CC(=O)O[C@@H]1C=C(C)[C@H](CBr)O[C@@]2(C)CC[C@H](Br)C(C)(C)[C@H]12,> 100 µM
11,COc1ccc2c(c1)OCc1c-2oc2ccccc2c1=O,> 100 µM
12,Nc1nc(Cl)cc(NCC2(CO)COC2)n1,> 100 µM

# System: DU-145 prostate
# Assay: NCI tumour cell line growth inhibition, 48 h
row,Structure (SMILES),TGI
1,Cc1nc(N)c(N2CCNCC2)c(=O)[nH]1,> 100 µM
2,CCOC(=O)NC(Nc1ccc(S(=O)(=O)Nc2ncccn2)cc1)(C(=O)OCC)C(F)(F)F (centres undefined),> 100 µM
3,O=P(O)(O)CN1CCN(CP(=O)(O)O)CCN(CP(=O)(O)O)CCN(CP(=O)(O)O)CC1,> 100 µM
